In US12139508B2, “Steroid derivative regulators, method for preparing the same, and uses thereof” (JIANGSU HANSOH PHARMACEUTICAL GROUP CO., LTD., priority 2018, dated 2024):
Like-named read-outs stand apart in the source and are kept apart here.

Legend:
[1] = Pharmacokinetic assay in Balb/c mice (plasma and brain tissue); type: in vivo; conditions: mouse, po, 5 mg/kg p.o., male Balb/c mice; for AUC(0-t): read-out: Area under curve AUC0-t; for AUC(0-inf): read-out: Area under curve AUC0-∞; for half-life: read-out: Half-life t1/2 (converted); for MRT: read-out: Mean residence time MRT; for Tmax: read-out: Peak time tmax; for Cmax: read-out: Plasma concentration Cmax
Summary of the method: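 Compound levels in plasma and brain were measured by LC/MS/MS with an internal standard after protein precipitation with acetonitrile. Samples came from overnight-fasted male Balb/c mice given 5 mg/kg p.o., with cardiac blood drawn at 0–24 h. Pharmacokinetic parameters were then calculated.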

forced-swimming mice = test: In vivo pharmacodynamic test in the forced swimming model in mice; conditions: ICR mice; for Mean (immobility, %): 100*floating time/240 s
Procedure: The antidepressant effect of the compound was evaluated by the forced swimming model in mice.
Male ICR mice (25-35 g) were adapted in the test environment for 3 days before the forced swimming test.
According to the test design, the mice were randomly grouped on the day before the test according to body weight, with 12 mice in each group. Before the test, the compounds of each example were administered intragastrically according to the Tmax thereof in the brain in mice pharmacokinetic test as follows: • 1) Model group (0.5% CMC-Na-1% Tween 80 solution, p.o., 10 mL/kg); • 2) Compounds of Example 2, Example 3, Example 5, Example 6, Example 9, Examples 59-63, Examples 71-73, Example 103, Example 135, Example 137, Example 145 and Example 146 (10 mg/kg, p.o., 10 mL/kg); Example 13 and Example 74 (5 mg/kg, p.o., 5 mL/kg).
When being administered, the compounds of each example were suspended in 0.5% CMC-Na+1% Tween 80 solution to the desired concentration.
0.5-1 hour after administration, ICR mice were placed in a forced swimming device (transparent glass drum (water depth 18 cm, water temperature 25-26° C.), one mouse per tank) and forced to swim for 6 minutes. The forced swimming device recorded the floating time of the ICR mice during the entire 6 minutes, and the data of the latter four minutes were used for data analysis. The mice were taken out immediately after the swimming test, wiped dry and put back in their original cages.
Note: The criterion for determining the immobility time is that the mouse stops struggling in water and floats, and there are only slight limb movements to keep the head floating on the water.
3.4 Data Analysis Floating time percentage=100*floating time/240 s.

[2] = system: PTZ-induced epilepsy model in CD-1 mice; test: In vivo pharmacodynamic test in the PTZ-induced epilepsy model in mice; conditions: dose 3 mpk p.o., PTZ 120 mg/kg s.c., 30 min observation
Procedure: The PTZ-induced epilepsy model in CD-1 mice was established, and the antiepileptic effect of the compounds of Example 3, Example 60, Example 61 and Example 74 was evaluated using this model.
50 male CD-1 mice were purchased from Beijing Vital River Laboratory Animal Technology Co. Ltd. The test animals were adapted at the animal room in the third building of Shanghai ChemPartner Co., Ltd for 7 days before the test. The average body weight of the animals on the test day was 32.2±0.2 grams. Feeding environment: 5 animals/cage, room temperature 23±2° C., 12/12 hours of light and dark cycle, free acess to food and water.
4.2.1 Test Equipments • 1 ml sterile disposable syringe with needle (purchased from Zhejiang Kangdelai Medical Devices Co., Ltd.) • Pipette: Eppendorf Research Plus (100-1000 L) • Vortex mixer: Kylin-Bell Vortex 5 • Ultrasonic instrument: JL-360 ultrasonic cleaner • Balance: METTLER TOLEDO™ XS204 precision balance (note: METTLER TOLEDO™ is a kind of balance used in labs and industry) • Balance: METTLER TOLEDO™ XS6002S electronic balance (note: METTLER TOLEDO™ is a kind of balance used in labs and industry) • Plexiglass box: 25 cm length*15 cm width*15 cm height with one opaque side wall, custom made by Suzhou Fengshi Laboratory Animal Equipment Co., Ltd • 3-channel timer: Oregon/Model NO.WB-388. 4.2.2 Test Animal Grouping • 1) Vehicle/PTZ: 0.5% CMC-Na+1% Tween-80 (10 ml/kg, p.o.), administered 0.5 hr before the PTZ administration; PTZ ([…], s.c.), administered before the test; • 2) 3 mg/kg of the compounds of Examples/PTZ: the compounds of Example 3, Example 60, Example 61 and Example 74 (3 mg/kg, 10 ml/kg, p.o.), administered 0.5 hr before the PTZ administration; PTZ ([…], s.c.), administered before the test. 4.3 Experimental Procedures 4.3.1 Solvent Formulation 1) 0.5% CMC-Na+1% Tween-80 (Administration Volume: 10 mL/Kg):
4.4 Adaptation to the Environment
The mice were randomly grouped, marked and weighed; 10 mice per group. The test compound was administered orally at an administration volume of 10 mL/kg 30-60 minutes before the PTZ administration.
PTZ (120 mg/kg) was administrated subcutaneously before the test observation, and this time point was recorded as the observation start point; after the administration of PTZ, the animal was immediately placed in the observation box and observed for 30 minutes, and the followings were recorded: a) the incubation period of the first clonic seizure, b) the incubation period of the first generalized tonic seizure, c) the number of clonic seizures, d) the number of generalized tonic seizures, e) the time when the animal died.
All measurement data were expressed as Mean±SEM, and analysed with Prism 6.0 statistical software.

Cc1nnn(CC(=O)[C@H]2C[C@@H](C3CC3)[C@H]3[C@@H]4CC[C@@H]5C[C@](C)(O)CC[C@@H]5[C@H]4CC[C@@]32C)n1 [Example 74, 1-((3R,5R,8R,9R,10S,13S,14S,15S,17S)-15-Cyclopropyl-3-hydroxy-3,13-dimethylhexadecahydro-TH-cyclopenta[a]phenanthren-17-yl)-2-(5-methyl-2H-tetrazol-2-yl)ethan-1-one]
AUC(0-t) ([1]; brain tissue): 5850 ng·h/mL | AUC(0-inf) ([1]; brain tissue): 6510 ng·h/mL | half-life ([1]; brain tissue): 2.28 h | MRT ([1]; brain tissue): 3.82 h | Tmax ([1]; brain tissue): 1 h | Cmax ([1]; brain tissue): 1520 ng/mL | AUC(0-t) ([1]; plasma): 7160 ng·h/mL | AUC(0-inf) ([1]; plasma): 8600 ng·h/mL | half-life ([1]; plasma): 3.06 h | MRT ([1]; plasma): 4.59 h | Tmax ([1]; plasma): 0.5 h | Cmax ([1]; plasma): 2140 ng/mL | Mean (immobility, %) (forced-swimming mice; dose 5 mpk p.o.): 38.00% | Incubation period of the clonic seizure, Mean ± SEM [2]: 635.4 ± 149.9 s | Incubation period of the generalized tonic seizure, Mean [2]: 1506.8 ± 149.8 s | Mortality rate [2]: 30% | Number of clonic seizures, Mean [2]: 1.8 ± 0.3 | Number of generalized tonic seizures, Mean [2]: 0.3 ± 0.2 | Time when the animal died, Mean [2]: 1618.1 ± 121.3 s

C[C@@H]1C[C@H](C(=O)Cn2nccn2)[C@@]2(C)CC[C@H]3[C@@H](CC[C@@H]4C[C@](C)(O)CC[C@@H]43)[C@H]12 [Example 61, 1-((3R,5R,8R,9R,10S,13S,14S,15R,17S)-3-Hydroxy-3,13,15-trimethylhexadecahydro-1H-cyclopenta[a]phenanthren-17-yl)-2-(2H-1,2,3-triazol-2-yl)ethan-1-one]
AUC(0-t) ([1]; brain tissue): 657 ng·h/mL | AUC(0-inf) ([1]; brain tissue): 676 ng·h/mL | half-life ([1]; brain tissue): 3.95 h | MRT ([1]; brain tissue): 1.41 h | Tmax ([1]; brain tissue): 0.5 h | Cmax ([1]; brain tissue): 711 ng/mL | AUC(0-t) ([1]; plasma): 588 ng·h/mL | AUC(0-inf) ([1]; plasma): 605 ng·h/mL | half-life ([1]; plasma): 3.27 h | MRT ([1]; plasma): 1.48 h | Tmax ([1]; plasma): 0.5 h | Cmax ([1]; plasma): 525 ng/mL | Mean (immobility, %) (forced-swimming mice; dose 10 mpk p.o.): 35.75% | Immobility time during the latter four minutes compared with that of the model group (forced-swimming mice; forced swimming): significantly different | Incubation period of the clonic seizure, Mean ± SEM [2]: 841.4 ± 179.8 s | Incubation period of the generalized tonic seizure, Mean [2]: 1497.4 ± 124.3 s | Mortality rate [2]: 40% | Number of clonic seizures, Mean [2]: 1.9 ± 0.4 | Number of generalized tonic seizures, Mean [2]: 0.5 ± 0.2 | Time when the animal died, Mean [2]: 1573.1 ± 117.9 s
